Reference: patent US12496298B2, “Natural killer cells” (Imperial College Innovations Limited, priority 2017, dated 2025)

System: Human CD34+ cells
Test: In vitro development of human NK cells (hCD56+ hCD45+) from CD34+ umbilical cord blood progenitor cells
Format: cell-based
Experimental: FIG. 9: Human CD34^+ cells were cultured with the addition of 5 μM SR8278 at Day 4. At Day 14 and 16, percentage of hCD56^+ hCD45^+ (markers for human NK cells) cells was quantified using flow cytometry. (A) Graph showing percentage of hCD56^+ hCD45^+ cells compared to the ‘No drug’ control in different conditions. (B) Flow cytometry gating strategy for identification of human NK cells. (C) Representative flow cytometry results with percentage of NK cells shown. Results were averaged from one experiments with six repeats each and the error bars represent the mean+SD.
The hypothesis that SR8278 increases NK cells production would not have any potential therapeutic value if it was not also true for human NK cell production. Therefore, the effect of SR8278 on human NK cell production from human HPCs was examined. Human HPCs were obtained as the CD34^+ population purified from umbilical cord blood from collaborators at the Anthony Nolan Research Institute, London. Human NK cell development goes through a similar developmental pathway to mouse NK cell development. By contrast with mouse HPC culture, human CD34^+ cells were cultured straight onto EL08-1D2 stromal cells in the presence of IL-3, IL-7, FIt3L, SCF and IL-15 cytokines for 14 and 16 days before harvesting and analysis by flow cytometry. To try to optimise human NK cell production, 5 or 10 μM SR8278 were added on either day 2, 4 or 6 of the culture.
OP9-GFP stromal cells were cultured in Iscove's Modified Dulbecco's Media (IMDM) (Sigma Aldrich) supplemented with 20% Fetal Bovine Serum (FBS), and Penicillin/[…] (P/S). For experiments done on 96-well plates, OP9 stromal cells were plated at the concentration of 2000 cells/well and incubated at 37° C., 5% CO2 for 1 day before the addition of HPCs. For experiments done on 24-well plates, OP9 stromal cells were plated at the concentration of 4000 cells/well and were incubated at 37° C. 5% CO2 for 2 days prior to addition of HPCs. EL08.1D2 stromal cells were cultured in Minimum Essential Medium Eagle—Alpha Modification (Alpha-MEM) supplemented with 50% Myelocult M5300 (Stem Cell Technologies), 7.5% FBS, 50 μM β-Mercaptoethanol, 1 μM Hydrocortisone and 1% P/S (Sigma Aldrich). For human CD34^+ progenitor cell experiments, EL08.1D2 were irradiated at 3000 rads/30 Gy and plated in 96-well EmbryoMax Gelatin (Millipore)-coated plates at the concentration of 20,000 cells/well. There were cultured at 32° C., 5% CO2 overnight, before CD34^+ cells were transferred onto them.
CD34^+ umbilical cord blood progenitor cells were provided by Anthony Nolan Research Institute, University College London. These cells were isolated from whole cord blood and were cryopreserved in liquid nitrogen for storage and transport. Cells were thawed, counted and then plated on EL08.1D2 plates prepared previously at a concentration of 1000 cells/well in human NK cells differentiation medium (Alpha-MEM plus 20% Human AB serum (Invitrogen), 50 μM β-Mercaptoethanol and 1% P/S along with 5 ng/ml human-IL-3 (Peprotech), 20 ng/ml human-IL-7 (Peprotech), 10 ng/ml human-Flt3-L (Peprotech), 20 ng/ml human-SCF (Peprotech) and 10 ng/ml human-IL-15 (Peprotech). Note that human-IL-3 is only needed for the first week of culture. Cells were left in the culture at 37° C., 5% CO2 for 14 or 16 days with a change of human NK differentiation medium at day 7 and 12.
Cells to be analysed by flow cytometry were passed through 40 μm cell strainers to remove clumps and washed with PBS buffer, centrifuged at 800 g for 2 minutes and resuspended in 100 μl fluorescent activated cell sorting (FACS) buffer (PBS plus 1% BSA) with appropriate fluorochrome conjugated antibodies at a dilution of 1 in 300. […]

## CCOC(=O)C1Cc2ccccc2CN1C(=O)c1ccc(SC)s1 (stereo not drawn) [SR8278, 1,2,3,4-Tetrahydro-2-[[5-(methylthio)-2-thienyl]carbonyl]-3-isoquinolinecarboxylic acid ethyl ester]
5 μM added at Day 4, harvested at Day 14
  change of percentage of NK cells versus 'No drug' control: almost tripled
5 μM added at Day 4, harvested at Day 14, 'No drug' control 5.53%
  percentage of NK cells: 13.7%
5 μM added at Day 4, harvested at Day 16
  change of percentage of NK cells versus 'No drug' control: doubled
5 μM added at Day 4, harvested at Day 16, 'No drug' control 21.8%
  percentage of NK cells: 44.3%
5 μM added on Day 2
  NK cell number: clear increase
Summary in Discussion
  human NK cell development from human HPCs cultured in vitro: significantly increase
